Patent US20080227096A1, “Assay for response to proteasome inhibitors” (Centenary Institute of Cancer Medicine and Cell Biology, priority 2006, published 2008)
Read-outs that look alike come from different tables or passages of the source.

Columns and labels:
[1] = tested on: prostate cancer cell line LNCaP; assay: Bortezomib resistance (proliferation inhibition) assay, LNCaP; assay type: cell-based, human; details: compared with other non-myeloma cell lines, 5 days proliferation
Protocol: (§1) Cytotoxicity assays were performed essentially as described previously (16). For myeloma cell lines, some modifications were made due to their slow growth rate, non-adherence to the culture plate and sensitivity to sparse plating. Briefly, cells were seeded at 10,000 per well in 96-well plates in RPMI-1640 without phenol red (which interferes with detection of fluorescence). Bortezomib (Millennium Pharmaceuticals; Johnson & Johnson Pharmaceuticals) was applied in a concentration series along the long plate axis. After 5 days of proliferation, cells were permeabilised in situ by adding 5% by volume of 21 X Triton X-100 buffer (10 mM TrisHCl pH 7.4, 5 mM EDTA, 0.1% Triton X-100) and Sybr I Green (Invitrogen) 1:4000. The lysate was mixed thoroughly with a multi-channel pipette. One cycle of freeze and thaw was performed to ensure complete lysis. The fluorescence, measured on a plate reader (Wallac), was proportional to the number of viable cells at the end point. […]
(§2) Briefly, myeloma cell lines, prostate cancer cell lines and lymphoid cell lines were cultured in RPMI-1640 supplemented with 10% foetal calf serum, 100 units/mL penicillin G and 100 μg/mL streptomycin. […] Quantitation of spliced and unspliced XBP-1 and determination of sensitivity to Bortezomib was carried out as previously described (Examples 1.1, 1.2 and 2.1, respectively).

RPMI8226 myeloma cells = assay: Bortezomib resistance (proliferation inhibition) assay, RPMI8226; assay type: cell-based, human
Protocol: as §1, with “After 5 days of proliferation, cells were permeabilised in situ by adding 5% by volume of 21 X Triton X-100 buffer (10 mM TrisHCl pH 7.4, 5 mM EDTA, 0.1% Triton X-100) and Sybr I Green (Invitrogen) 1:4000. The lysate was mixed thoroughly with a multi-channel pipette. One cycle of freeze and thaw was performed to ensure complete lysis.” left out
as §2
(§3) H929 and RPMI8226 myeloma cells were transduced with virus as follows. […] Total XBP-1 and sensitivity to Bortezomib was determined as previously described (Example 1.1 and Example 2.1, respectively).

relapsed myeloma [2] = details: patients with relapsed myeloma, randomised trial, cited from earlier work
H929 myeloma cells = assay: Bortezomib resistance (proliferation inhibition) assay, H929; assay type: cell-based, human
Protocol: Cytotoxicity assays were performed essentially as described previously (16). For myeloma cell lines, some modifications were made due to their slow growth rate, non-adherence to the culture plate and sensitivity to sparse plating. Briefly, cells were seeded at 10,000 per well in 96-well plates in RPMI-1640 without phenol red (which interferes with detection of fluorescence). Bortezomib (Millennium Pharmaceuticals; Johnson & Johnson Pharmaceuticals) was applied in a concentration series along the long plate axis. After 5 days of proliferation, cells were permeabilised in situ by adding 5% by volume of 21 X Triton X-100 buffer (10 mM TrisHCl pH 7.4, 5 mM EDTA, 0.1% Triton X-100) and Sybr I Green (Invitrogen) 1:4000. The lysate was mixed thoroughly with a multi-channel pipette. One cycle of freeze and thaw was performed to ensure complete lysis. The fluorescence, measured on a plate reader (Wallac), was proportional to the number of viable cells at the end point. The IC50 was determined as the concentration of drug that inhibited proliferation to 50% of the untreated controls (see FIG. 5A-5E).
as §3

refractory myeloma = details: cited from earlier work
P-glycoprotein = P-glycoprotein (Homo sapiens, UniProt P08183); details: cited from earlier work
P-glycoprotein, sequence (P08183 whole entry): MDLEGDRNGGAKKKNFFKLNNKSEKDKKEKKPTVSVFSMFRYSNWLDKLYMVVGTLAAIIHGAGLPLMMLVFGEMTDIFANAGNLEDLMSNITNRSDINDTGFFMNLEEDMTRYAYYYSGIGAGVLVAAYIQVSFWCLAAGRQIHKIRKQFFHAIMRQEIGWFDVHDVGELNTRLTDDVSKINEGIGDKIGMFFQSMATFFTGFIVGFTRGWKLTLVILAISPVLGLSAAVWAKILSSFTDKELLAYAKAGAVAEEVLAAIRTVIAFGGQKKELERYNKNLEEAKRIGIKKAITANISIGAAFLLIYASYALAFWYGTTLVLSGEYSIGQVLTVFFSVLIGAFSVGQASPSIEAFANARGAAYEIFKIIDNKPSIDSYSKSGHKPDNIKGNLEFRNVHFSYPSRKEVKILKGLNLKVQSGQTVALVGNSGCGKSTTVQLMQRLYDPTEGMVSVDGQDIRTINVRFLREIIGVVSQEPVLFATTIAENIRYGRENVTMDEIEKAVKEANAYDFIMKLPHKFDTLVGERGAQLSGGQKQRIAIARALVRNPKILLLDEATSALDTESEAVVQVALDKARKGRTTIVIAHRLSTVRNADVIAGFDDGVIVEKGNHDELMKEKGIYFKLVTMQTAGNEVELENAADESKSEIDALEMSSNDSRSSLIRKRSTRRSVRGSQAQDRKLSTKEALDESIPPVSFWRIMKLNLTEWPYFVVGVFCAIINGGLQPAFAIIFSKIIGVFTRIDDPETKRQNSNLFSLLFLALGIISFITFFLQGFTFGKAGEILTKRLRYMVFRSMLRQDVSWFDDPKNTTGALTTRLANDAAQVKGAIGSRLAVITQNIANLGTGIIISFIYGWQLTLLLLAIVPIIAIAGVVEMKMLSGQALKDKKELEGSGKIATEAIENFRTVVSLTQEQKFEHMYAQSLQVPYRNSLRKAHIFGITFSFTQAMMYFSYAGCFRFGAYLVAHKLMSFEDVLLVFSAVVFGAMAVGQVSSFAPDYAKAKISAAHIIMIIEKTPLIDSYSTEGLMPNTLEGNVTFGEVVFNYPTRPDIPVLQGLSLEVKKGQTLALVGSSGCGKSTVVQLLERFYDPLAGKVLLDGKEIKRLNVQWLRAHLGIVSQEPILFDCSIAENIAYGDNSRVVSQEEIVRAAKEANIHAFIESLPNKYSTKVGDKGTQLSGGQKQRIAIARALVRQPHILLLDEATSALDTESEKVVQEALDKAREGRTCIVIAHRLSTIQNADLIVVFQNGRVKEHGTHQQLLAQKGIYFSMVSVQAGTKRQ

myeloma cells = details: direct inhibition of NF-κB; cited from earlier work
myeloma [3] = details: phase III randomised control trial; cited from earlier work
P-glycoprotein (P-gp) = P-glycoprotein (P-gp) (Homo sapiens, UniProt P08183); details: cyclosporin D derivative; cited from earlier work
P-glycoprotein (P-gp), sequence (P08183 whole entry): as above

relapsed myeloma [4] = details: single agent, relapsed disease; cited from earlier work
myeloma [5] = details: cited from earlier work

## CC(C)C[C@H](NC(=O)[C@H](Cc1ccccc1)NC(=O)c1cnccn1)B(O)O [Bortezomib]
[1]
  sensitivity of cell line to Bortezomib (rank): most sensitive to Bortezomib of the non-myeloma cell lines
RPMI8226 myeloma cells; RPMI8226 cells, XBP-1 knockdown
  change of sensitivity to Bortezomib after shRNA knockdown of XBP-1: No such effect on sensitivity to Bortezomib
RPMI8226 myeloma cells; RPMI8226 transfectants vs vector control
  change of sensitivity to Bortezomib after overexpression of spliced or unspliced XBP-1 cDNA: only a small effect on sensitivity
Relapsed myeloma [2]; p<0.001
  overall response rate: 38%
Relapsed myeloma [2]
  complete response rate: 6%
  one-year survival rate: 80%
H929 myeloma cells; H929 cells, XBP-1 knockdown
  change of sensitivity to Bortezomib after shRNA knockdown of XBP-1: decrease in sensitivity to Bortezomib but the change was modest
H929 myeloma cells; myeloma cell lines, 5 days proliferation
  sensitivity of cell line to Bortezomib (rank): most sensitive to Bortezomib
Refractory myeloma; a significant proportion of patients
  side effects: fatigue, nausea, diarrhoea, thrombocytopenia, anaemia and peripheral neuropathy
Refractory myeloma; refractory cases, phase I and II trials
  overall response rate: ~30%
Refractory myeloma; relapsed patients
  primary resistance, proportion of relapsed patients: about 60%
P-glycoprotein
  P-glycoprotein substrate: not a significant P-glycoprotein substrate

## O=C(Nc1cc(Cl)cc2c1[nH]c1cnccc12)c1cccnc1 [PS-1145]
Myeloma cells
  inhibition of proliferation of myeloma cells: insufficient to completely inhibit the proliferation

## C/C=C/C[C@@H](C)C(=O)[C@H]1C(=O)N[C@@H](C(C)C)C(=O)N(C)CC(=O)N(C)[C@@H](CC(C)C)C(=O)N[C@@H](C(C)C)C(=O)N(C)[C@@H](CC(C)C)C(=O)N[C@@H](C)C(=O)N[C@H](C)C(=O)N(C)[C@@H](CC(C)C)C(=O)N(C)[C@@H](CC(C)C)C(=O)N(C)[C@@H](C(C)C)C(=O)N1C [Valspodar]
Myeloma [3]
  toxicity on addition of the P-gp inhibitor: increased toxicity
P-glycoprotein (P-gp)
  potency of inhibitory activity on P-gp (relative): 5 times

## O=C1CCC(N2C(=O)c3ccccc3C2=O)C(=O)N1 (stereo not drawn) [thalidomide]
Relapsed myeloma [4]
  overall response rate: ~32%
  patients with at least very good partial response or complete response: approximately 10%

## interferon-α
Myeloma [5]
  effect of maintenance therapy on response and survival: marginal effect in terms of prolonging response and survival
